Test system: Salmonella typhimurium
Assay: Antibacterial activity against salmonella typhimurium infected in gentamicin-treated mouse RAW264.7 macrophages assessed as reduction of bacterial accumulation with macrophage measured after 17.5 hrs of post infection by SAFIRE assay
Assay type: functional, organism-based, Salmonella enterica subsp. enterica serovar Typhimurium
Details: Salmonella enterica, RAW264.7, 17.5 h

`OC(COc1ccc(C2C3CC4CC(C3)CC2C4)cc1)CN1CCCCC1` (stereo unspecified) gave an IC50 of 120 nM.

Reference: ChEMBL document CHEMBL5120756, “Mycobacterial Membranes as Actionable Targets for Lipid-Centric Therapy in Tuberculosis” (J Med Chem, 2022)
